Drawing on ChEMBL document CHEMBL3098118, “Access to a new class of biologically active quinoline based 1,2,4-triazoles” (2014), this text covers MIC for 14 compounds.

Common to all, as to assay type: functional
One assay deals with Candida albicans. Nature of the assay: Antifungal activity against Candida albicans MTCC 183 by agar streak dilution method.
The next assay relates to Aspergillus niger. Nature of the assay: Antifungal activity against Aspergillus niger MTCC 282 by agar streak dilution method.
The subject of the next assay is Klebsiella pneumoniae. The experiment in a line: Antibacterial activity against Klebsiella pneumoniae MTCC 109 by agar streak dilution method.
For a further assay, the system named is Pseudomonas aeruginosa. Nature of the assay: Antibacterial activity against Pseudomonas aeruginosa MTCC 741 by agar streak dilution method.
In a further assay the test system is Escherichia coli. The experiment in a line: Antibacterial activity against Escherichia coli MTCC 739 by agar streak dilution method.
For a further assay, the system named is Bacillus cereus. The experiment in a line: Antibacterial activity against Bacillus cereus MTCC 619 by agar streak dilution method.
A further assay concerns Staphylococcus aureus. Nature of the assay: Antibacterial activity against Staphylococcus aureus MTCC 96 by agar streak dilution method.

Converted amounts (≈) assume the structure as drawn.

For the compound `O=C(CSc1nnc(-c2ccc3ncccc3c2)n1-c1cccc2ccccc12)Nc1nc2ccc([N+](=O)[O-])cc2s1`, the minimal inhibitory concentration (MIC) worked out at 50 µg/mL (≈ 84.8 µM) with Candida albicans; 6.25 µg/mL (≈ 10.6 µM) against Aspergillus niger; 50 µg/mL (≈ 84.8 µM) in the assay on Klebsiella pneumoniae; 50 µg/mL (≈ 84.8 µM) against Pseudomonas aeruginosa; 50 µg/mL (≈ 84.8 µM) against Escherichia coli; 62.5 µg/mL (≈ 106 µM) in the assay with Bacillus cereus. This compound came in with an MIC in the assay on Staphylococcus aureus of 200 µg/mL (≈ 339 µM).

For the compound `O=C(CSc1nnc(-c2ccc3ncccc3c2)n1-c1cccc2ccccc12)Nc1nc2ccccc2s1`, the MIC against Candida albicans came out at 100 µg/mL (≈ 184 µM); in the assay with Aspergillus niger it was 200 µg/mL (≈ 367 µM); against Klebsiella pneumoniae, 500 µg/mL (≈ 918 µM); against Pseudomonas aeruginosa, 500 µg/mL (≈ 918 µM); against Escherichia coli, 250 µg/mL (≈ 459 µM); against Bacillus cereus, 250 µg/mL (≈ 459 µM). The compound further had an MIC with Staphylococcus aureus of 500 µg/mL (≈ 918 µM).

As to `COc1ccc2nc(NC(=O)CSc3nnc(-c4ccc5ncccc5c4)n3-c3cccc4ccccc34)sc2c1`, the MIC against Candida albicans was 25 µg/mL (≈ 43.5 µM); with Aspergillus niger it was 6.25 µg/mL (≈ 10.9 µM); against Klebsiella pneumoniae, 62.5 µg/mL (≈ 109 µM); with Pseudomonas aeruginosa, 50 µg/mL (≈ 87 µM); with Escherichia coli, 62.5 µg/mL (≈ 109 µM); against Bacillus cereus, 100 µg/mL (≈ 174 µM). The same compound displayed an MIC in the assay on Staphylococcus aureus of 100 µg/mL (≈ 174 µM).

Regarding `CCOc1ccc2nc(NC(=O)CSc3nnc(-c4ccc5ncccc5c4)n3-c3cccc4ccccc34)sc2c1`, the MIC came to 6.25 µg/mL (≈ 10.6 µM) in the assay on Candida albicans; 12.5 µg/mL (≈ 21.2 µM) in the assay on Aspergillus niger; 100 µg/mL (≈ 170 µM) in the assay on Klebsiella pneumoniae; 25 µg/mL (≈ 42.5 µM) against Pseudomonas aeruginosa; 100 µg/mL (≈ 170 µM) against Escherichia coli; 100 µg/mL (≈ 170 µM) in the assay with Bacillus cereus. In the assay on Staphylococcus aureus, this compound returned an MIC of 200 µg/mL (≈ 340 µM).

As for `N#Cc1ccc2nc(NC(=O)CSc3nnc(-c4ccc5ncccc5c4)n3-c3cccc4ccccc34)sc2c1`, the minimal inhibitory concentration (MIC) against Candida albicans came to 6.25 µg/mL (≈ 11 µM); in the assay with Aspergillus niger it was 100 µg/mL (≈ 176 µM); with Klebsiella pneumoniae, 50 µg/mL (≈ 87.8 µM); against Pseudomonas aeruginosa, 100 µg/mL (≈ 176 µM); against Escherichia coli, 50 µg/mL (≈ 87.8 µM); with Bacillus cereus it was 200 µg/mL (≈ 351 µM). This compound also registered an MIC against Staphylococcus aureus of 500 µg/mL (≈ 878 µM).

Take `Cc1ccc2nc(NC(=O)CSc3nnc(-c4ccc5ncccc5c4)n3-c3cccc4ccccc34)sc2c1`: the MIC with Candida albicans is 200 µg/mL (≈ 358 µM); against Aspergillus niger it was 50 µg/mL (≈ 89.5 µM); against Klebsiella pneumoniae, 500 µg/mL (≈ 895 µM); against Pseudomonas aeruginosa, 100 µg/mL (≈ 179 µM); against Escherichia coli, 200 µg/mL (≈ 358 µM); in the assay with Bacillus cereus, 250 µg/mL (≈ 447 µM). In the assay with Staphylococcus aureus, this compound came in with an MIC of over 500 µg/mL.

As to `O=C(CSc1nnc(-c2ccc3ncccc3c2)n1-c1cccc2ccccc12)Nc1nc2ccc(Cl)cc2s1`, the MIC in the assay on Candida albicans was 50 µg/mL (≈ 86.3 µM); in the assay on Aspergillus niger it was 100 µg/mL (≈ 173 µM); against Klebsiella pneumoniae it was 62.5 µg/mL (≈ 108 µM); with Pseudomonas aeruginosa it was 200 µg/mL (≈ 345 µM); in the assay with Escherichia coli, 100 µg/mL (≈ 173 µM); against Bacillus cereus, 100 µg/mL (≈ 173 µM). Also, the MIC against Staphylococcus aureus turned out to be 200 µg/mL (≈ 345 µM).

With `O=C(CSc1nnc(-c2ccc3ncccc3c2)n1-c1cccc2ccccc12)Nc1nc2ccc(Br)cc2s1`, the MIC amounted to 25 µg/mL (≈ 40.1 µM) with Candida albicans; 50 µg/mL (≈ 80.2 µM) against Aspergillus niger; 100 µg/mL (≈ 160 µM) in the assay with Klebsiella pneumoniae; 100 µg/mL (≈ 160 µM) against Pseudomonas aeruginosa; 62.5 µg/mL (≈ 100 µM) against Escherichia coli; 25 µg/mL (≈ 40.1 µM) against Bacillus cereus. In addition, the MIC with Staphylococcus aureus was 50 µg/mL (≈ 80.2 µM).

GENTAMICIN: the MIC with Klebsiella pneumoniae is 25 µg/mL; in the assay on Pseudomonas aeruginosa it was 12.5 µg/mL; against Escherichia coli it was 12.5 µg/mL; with Bacillus cereus, 6.25 µg/mL; in the assay on Staphylococcus aureus, 6.25 µg/mL.

Turning to `O=C(CSc1nnc(-c2ccc3ncccc3c2)n1-c1cccc2ccccc12)Nc1nc2ccc(I)cc2s1`, the MIC against Candida albicans worked out at 62.5 µg/mL (≈ 93.2 µM); against Aspergillus niger, 62.5 µg/mL (≈ 93.2 µM); against Klebsiella pneumoniae, 100 µg/mL (≈ 149 µM); in the assay with Pseudomonas aeruginosa it was 250 µg/mL (≈ 373 µM); in the assay with Escherichia coli, 250 µg/mL (≈ 373 µM); against Bacillus cereus it was 200 µg/mL (≈ 298 µM). Moreover, the MIC with Staphylococcus aureus worked out at 250 µg/mL (≈ 373 µM).

As to `CC(=O)Nc1ccc2nc(NC(=O)CSc3nnc(-c4ccc5ncccc5c4)n3-c3cccc4ccccc34)sc2c1`, the MIC with Candida albicans is 100 µg/mL (≈ 166 µM); with Aspergillus niger, 62.5 µg/mL (≈ 104 µM); against Klebsiella pneumoniae it was 250 µg/mL (≈ 415 µM); with Pseudomonas aeruginosa it was 62.5 µg/mL (≈ 104 µM); against Escherichia coli it was 200 µg/mL (≈ 332 µM); with Bacillus cereus it was 250 µg/mL (≈ 415 µM). In addition, the MIC with Staphylococcus aureus stood at 500 µg/mL (≈ 831 µM).

Consider `O=C(CSc1nnc(-c2ccc3ncccc3c2)n1-c1cccc2ccccc12)Nc1nc2ccc(F)cc2s1`, for which the MIC amounted to 50 µg/mL (≈ 88.9 µM) in the assay with Candida albicans; 25 µg/mL (≈ 44.4 µM) against Aspergillus niger; 62.5 µg/mL (≈ 111 µM) in the assay on Klebsiella pneumoniae; 100 µg/mL (≈ 178 µM) with Pseudomonas aeruginosa; 100 µg/mL (≈ 178 µM) in the assay with Escherichia coli; 50 µg/mL (≈ 88.9 µM) against Bacillus cereus. For the same compound, the MIC in the assay with Staphylococcus aureus was determined as 25 µg/mL (≈ 44.4 µM).

`CC1(C)S[C@@H]2[C@H](NC(=O)[C@H](N)c3ccccc3)C(=O)N2[C@H]1C(=O)O` [AMPICILLIN]: the MIC is 25 µg/mL (≈ 71.5 µM) in the assay with Klebsiella pneumoniae; 25 µg/mL (≈ 71.5 µM) against Pseudomonas aeruginosa; 6.25 µg/mL (≈ 17.9 µM) against Escherichia coli; 12.5 µg/mL (≈ 35.8 µM) against Bacillus cereus; 12.5 µg/mL (≈ 35.8 µM) in the assay with Staphylococcus aureus.

For the compound `OC(Cn1cncn1)(Cn1cncn1)c1ccc(F)cc1F` [FLUCONAZOLE], the MIC with Candida albicans is 12.5 µg/mL (≈ 40.8 µM); in the assay with Aspergillus niger, 6.25 µg/mL (≈ 20.4 µM).
